# Laboratory results taken from patent publication US12006289B2, “Potassium channel inhibitors” (Saniona A/S, priority 2019, dated 2024).
# Assays:
# [1] = Solubility of compounds in 50 mM phosphate buffer pH 7.4 by HPLC; type: physicochemical
# Description: Solubility is calculated using the following formula: […]
# [2] = statement in words; cited from earlier work
# [3] = system: mouse model of ARDS; settings: treatment with classical KCa3.1 inhibitors; cited from earlier work
# [4] = target: erythrocyte KCa3.1 channels (Homo sapiens (Human), UniProt O15554); assay: Erythrocyte KCa3.1 assay; type: cell-based; settings: human erythrocytes, A23187-activated, 37° C.; read-out: RBC K (in vitro) Human IC50
# Description: Human blood was drawn from healthy human volunteers in a standard heparinized blood sampling vial (Vacutainer, Li/heparin, BD Bioscience, Plymouth, UK). The erythrocytes were packed by centrifugation, and the plasma and buffy coat were removed by aspiration. Erythrocytes were washed three times in the experimental salt solution and then stored at 0° C. until use. Blood samples from NMRI mice or from Wistar rats were treated similarly. The methodological principle is outlined in Macey et al. (1978) and further described in Strøbæk et al. (2013). Activation of the erythrocyte KCa3.1 channels were obtained by addition of the Ca^2+ ionophore A23187, which causes synchronized hyperpolarization, which is reported as a CCCP-mediated shift in the unbuffered extracellular pH of the erythrocyte suspension. Standard procedure: 3 mL unbuffered experimental salt solution (in mM: 2 KCl, 154 NaCl, 0.05 CaCl2) was heated to 37° C. with stirring. Packed erythrocytes were added (50 μL, final cytocrit 1.5%), and the extracellular pH (pHo) followed with a glass/calomel (pHG200-8/REF200, Radiometer, Denmark) electrode pair. CCCP (3 μL, final concentration 20 μM) was added followed by varying concentrations of test compounds (DMSO concentration constant). After pH stabilization at ˜7.2, A23187 (3 μL, final concentration 0.33 μM) was added to initiate the experiment. After the peak hyperpolarization was attained, the intracellular pH (pHi constant during the experiment) was found by haemolysing the erythrocytes via addition of 100 μL of Triton-X100.
# The erythrocyte membrane potential, Vm, was calculated according to: Vm=−61.5 mV×(pHo−pHi) and the fractional remaining Ca^2+-activated K^+-conductance at the concentration C of blocker, fGK(C), was calculated from
# [formula] where the K^+ equilibrium potential EK=−107 mV, the Cl^− equilibrium potential ECl=−12 mV and the Vm(0) and Vm(C) are the peak hyperpolarizations in the control and in the presence of a concentration of C of blocker respectively.
# IC50 values for compounds were calculated from a plot of fGK(C) versus C by a fit to the Hill equation, using a custom program written in the IGOR-Pro software (WaveMetrics, Lake Oswego, OR, USA). All IC50-values are reported in μM.
# [5] = 50 mM potassium phosphate buffer pH 7.40, 16 hr at ~25° C., 1600 μM incubation concentration
SMILES,IC50 [4],"Measured Solubility in pH 7.4 phosphate buffer (mg/ml) [1, 5]","Measured Solubility in pH 7.4 phosphate buffer (μM) (rounded) [1, 5]",further results
"O=C1CSc2ccccc2N1Cc1cccc(C(F)(F)F)c1 [NS6180, 4-[[3-(Trifluoromethyl)-phenyl]methyl]-2H-1,4-benzothiazin-3(4H)-one, reference compound]",,,,"Measured Solubility in pH 7.4 phosphate buffer (mg/ml) ([1]; 16 h, pH 7.4): 0.0009 mg/ml"
Clc1ccccc1C(c1ccccc1)(c1ccccc1)n1cccn1 [TRAM-34],,,,Water solubility [2]: extremely low water solubility; Gas exchange in mouse model of ARDS [3]: improved gas exchange
"COC(=O)N(CCN(C)C)C1(c2ccc(F)c(C(F)(F)F)c2)CC1 [[1], Methyl N-(2-(dimethylamino)ethyl)-N-(1-(4-fluoro-3-(trifluoromethyl)phenyl)cyclopropyl) carbamate]",330 nM,0.5409 mg/ml,1600 μM,
"COC(=O)N(CC(C)(C)N)C1(c2ccc(F)c(C(F)(F)F)c2)CC1 [[2], Methyl (2-amino-2-methylpropyl)(1-(4-fluoro-3-(trifluoromethyl)phenyl)cyclopropyl)carbamate]",86 nM,,,"Measured Solubility in pH 7.4 phosphate buffer (μM) (rounded) ([1]; 16 h, pH 7.4): 1600 μM"
"COC(=O)N(CC1(N)CC1)C1(c2ccc(F)c(C(F)(F)F)c2)CC1 [[3], Methyl ((1-aminocyclopropyl)methyl)(1-(4-fluoro-3-(trifluoromethyl)phenyl)cyclopropyl) carbamate]",160 nM,0.5599 mg/ml,1600 μM,
"CC(C)(N)CN(CC1CC1)C1(c2ccc(F)c(C(F)(F)F)c2)CC1 [[8], N1-(cyclopropylmethyl)-N1-(1-(4-fluoro-3-(trifluoromethyl)phenyl)cyclopropyl)-2-methyl propane-1,2-diamine]",14 nM,,,"Measured Solubility in pH 7.4 phosphate buffer (μM) (rounded) ([1]; 16 h, pH 7.4): 1500 μM"
"CN1CCC1CN(CC(C)(C)O)C1(c2ccc(F)c(C(F)(F)F)c2)CC1 (stereo not shown) [[16], 1-((1-(4-fluoro-3-(trifluoromethyl)phenyl)cyclopropyl)((1-methylazetidin-2-yl)methyl)amino)-2-methylpropan-2-ol]",400 nM,,,"Measured Solubility in pH 7.4 phosphate buffer (μM) (rounded) ([1]; 16 h, pH 7.4): 1600 μM"
"COC(=O)N(CC(C)(C)N)C1(c2cc(C(F)(F)F)c(F)cn2)CC1 [[17], Methyl (2-amino-2-methylpropyl)(1-(5-fluoro-4-(trifluoromethyl)pyridin-2-yl)cyclopropyl) carbamate]",400 nM,0.5636 mg/ml,1500 μM,
"COC(=O)N(C[C@@H]1CCCN1C)C1(c2ccc(F)c(C(F)(F)F)c2)CC1 [[27], Methyl (S)-(1-(4-fluoro-3-(trifluoromethyl)phenyl)cyclopropyl) ((1-methylpyrrolidin-2-yl)methyl) carbamate]",300 nM,0.5918 mg/ml,1600 μM,
"COC(=O)N(C[C@H]1CCCN1C)C1(c2ccc(F)c(C(F)(F)F)c2)CC1 [[31], Methyl (R)-(1-(4-fluoro-3-(trifluoromethyl)phenyl)cyclopropyl)((1-methylpyrrolidin-2-yl)methyl)carbamate]",81 nM,,,"Measured Solubility in pH 7.4 phosphate buffer (μM) (rounded) ([1]; 16 h, pH 7.4): 1500 μM"
"CCOC(=O)N(C[C@@H]1CCCN1C)C1(c2ccc(F)c(C(F)(F)F)c2)CC1 [[35], Ethyl (S)-(1-(4-fluoro-3-(trifluoromethyl)phenyl)cyclopropyl)((1-methylpyrrolidin-2-yl)methyl) carbamate]",110 nM,0.5679 mg/ml,1500 μM,
"CS(=O)(=O)N(C[C@@H]1CCCN1)C1(c2ccc(F)c(C(F)(F)F)c2)CC1 [[36], (S)—N-(1-(4-fluoro-3-(trifluoromethyl)phenyl)cyclopropyl)-N-(pyrrolidin-2-ylmethyl) methanesulfonamide]",320 nM,0.3218 mg/ml,800 μM,
"COC(=O)N(C[C@H]1COCCN1)C1(c2ccc(F)c(C(F)(F)F)c2)CC1 [[42], Methyl (S)-(1-(4-fluoro-3-(trifluoromethyl)phenyl)cyclopropyl)(morpholin-3-ylmethyl) carbamate]",340 nM,0.6118 mg/ml,1500 μM,
"CC(C)OC(=O)N(C[C@@H]1CCCN1)C1(c2ccc(F)c(C(F)(F)F)c2)CC1 [[44], Isopropyl (S)-(1-(4-fluoro-3-(trifluoromethyl)phenyl)cyclopropyl)(pyrrolidin-2-ylmethyl)carbamate]",200 nM,,,"Measured Solubility in pH 7.4 phosphate buffer (μM) (rounded) ([1]; 16 h, pH 7.4): 1600 μM"
"O=C(OCC1CC1)N(C[C@@H]1CCCN1)C1(c2ccc(F)c(C(F)(F)F)c2)CC1 [[48], Cyclopropylmethyl (S)-(1-(4-fluoro-3-(trifluoromethyl)phenyl)cyclopropyl)(pyrrolidin-2-ylmethyl)carbamate]",230 nM,,,
"CS(=O)(=O)N(CC1(N)CC1)C1(c2ccc(F)c(C(F)(F)F)c2)CC1 [[49], N-((1-aminocyclopropyl)methyl)-N-(1-(4-fluoro-3-(trifluoromethyl)-phenyl)cyclopropyl)methanesulfonamide]",390 nM,,,
"COC(=O)N(C[C@]1(C)CCCN1)C1(c2ccc(F)c(C(F)(F)F)c2)CC1 [[50], Methyl (S)-(1-(4-fluoro-3-(trifluoromethyl)phenyl)cyclopropyl)((2-methylpyrrolidin-2-yl)methyl)carbamate]",150 nM,,,
"N[C@H]1CCC[C@@H]1NC1(c2ccc(F)c(C(F)(F)F)c2)CC1 [[51], (1S, 2S)—N1-(1-(4-fluoro-3-(trifluoromethyl)phenyl)cyclopropyl)-cyclopentane-1,2-diamine]",410 nM,,,
"N[C@H]1CCC[C@H]1NC1(c2ccc(F)c(C(F)(F)F)c2)CC1 [[52], (1R,2S)—N1-(1-(4-fluoro-3-(trifluoromethyl)phenyl)cyclopropyl)-cyclopentane-1,2-diamine]",93 nM,,,
"COC(=O)N(C[C@@H]1CCN1)C1(c2ccc(F)c(C(F)(F)F)c2)CC1 [[53], Methyl (S)-(azetidin-2-ylmethyl)(1-(4-fluoro-3-(trifluoromethyl)phenyl)-cyclopropyl)carbamate]",360 nM,,,"Measured Solubility in pH 7.4 phosphate buffer (μM) (rounded) ([1]; 16 h, pH 7.4): 1700 μM"
NC(=O)C(c1ccccc1)(c1ccc(F)cc1)c1ccc(F)cc1 [senicapoc],,,,Water solubility [2]: extremely low water solubility; Gas exchange in mouse model of ARDS [3]: improved gas exchange
